What was measured:
tadpole shrimp [1] = assay: Inhibition of sexual development in tadpole shrimp in laboratory conditions; type: in vivo, Triops longicaudatus
Description: As above, the dry base, the viscous additive, and the saline solution form the means for delivering the methyl farnesoate. In some embodiments, the composition may include a preparation comprising an effective amount of methyl farnesoate. In some embodiments, the composition can include a minimum of about 0.0001% methyl farnesoate by weight. In some embodiments, the composition can include a maximum of about 0.001% methyl farnesoate by weight. It has been determined that a concentration of as little as about 0.75 micrograms of methyl farnesoate per gram of the final composition is effective for inhibiting sexual development in tadpole shrimp in laboratory conditions. […] Thus, in some embodiments, compositions containing at least about […] micrograms of methyl farnesoate per gram of the final composition may be used to reduce sexual development in tadpole shrimp. However, it is to be appreciated that the percentage of methyl farnesoate by weight may be greater or less than these amounts in accordance with some embodiments of the present invention.

[2] = Chemical stability of methyl farnesoate (oxidation, heat during drying); type: physicochemical; settings: exposure to temperatures above about 50 degrees Celsius during drying
Description: Recent scientific studies have shown that the hormone methyl farnesoate [methyl-(2E,6E,10E)-3,7,11-trimethyldodecatri-2,6,10-eneoate] […] Because methyl farnesoate oxidizes quickly and therefore will not build up large concentrations in the soil, and because it is a fatty acid, it is not considered to be harmful to the environment or adversely affect crop production. However, it is for these same reasons that administration of methyl farnesoate is difficult to administer.
In some further embodiments, the particles once formed can be dried to have a moisture content of, for example, about 5% and about 18%. Drying the particles assist in the efficient packaging, distribution, and dispensing of the particles. During such drying, the particles should not be exposed to extreme heat, which could reduce methyl farnesoate concentrations. […] Thus, in some embodiments, the pellets may be dried at a temperature below about 50 degrees Celsius. In some embodiments, relatively lower temperature drying can be enhanced by circulating ambient air over the particles.

tadpole shrimp [3] = settings: cited from earlier work
[4] = exposed to oxidizing agents in the environment; cited from earlier work

- loss of methyl farnesoate concentration from the pellets on heating [2]: significant loss
Compound: COC(=O)/C=C(\C)CC/C=C(\C)CCC=C(C)C [methyl farnesoate, methyl-(2E,6E,10E)-3,7,11-trimethyldodecatri-2,6,10-eneoate]
- concentration of methyl farnesoate effective for inhibiting sexual development in tadpole shrimp (tadpole shrimp [1]): about 0.75 micrograms of methyl farnesoate per gram of the final composition
- effect on growth, development and gamete production in pests such as tadpole shrimp (tadpole shrimp [3]; recent scientific studies): inhibits growth, development, and gamete production
- effect on sexual development of tadpole shrimp (tadpole shrimp [3]; studies): reduces sexual development
- oxidative stability [4]: easily oxidized into farnesoic acid
